According to PubChem BioAssay AID248 (DTP/NCI, 2004):
“And” between values parts separate entries of the source, which are not always exact repeats. Equal entries are not always repeated. Toxic doses and inconclusive results are not listed. No stated cut-off is given here; in the data, active means T/C of 150% or more; inactive means T/C below 125%.

Tested on: L1210 leukemia ip in BDF1 mice, survival T/C
Experiment: NCI In Vivo Anticancer Drug Screen. Data for tumor model L1210 Leukemia (intraperitoneal) in B6D2F1 (BDF1) mice
Conditions: endpoint: mean survival time, higher = longer survival
Outline: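 Each compound was tested against a transplantable tumor grown in mice. The endpoint was survival, with treated animals benchmarked against vehicle controls as a simple ratio.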

[1] = dose: 100.0 mg/kg/injection, schedule: Q04DX003 (ip), vehicle: saline with Tween-80
[2] = dose: 200.0 mg/kg/injection, schedule: Q04DX003 (ip), vehicle: saline with Tween-80
[3] = dose: 400.0 mg/kg/injection, schedule: Q04DX003 (ip), vehicle: saline with Tween-80
[4] = dose: 100.0 mg/kg/injection, schedule: Q01DX001 (ip), vehicle: Klucel (hydroxypropylcellulose) (HPC)
[5] = dose: 100.0 mg/kg/injection, schedule: Q04DX003 (ip), vehicle: Klucel (hydroxypropylcellulose) (HPC)
[6] = dose: 200.0 mg/kg/injection, schedule: Q01DX001 (ip), vehicle: Klucel (hydroxypropylcellulose) (HPC)
[7] = dose: 200.0 mg/kg/injection, schedule: Q04DX003 (ip), vehicle: Klucel (hydroxypropylcellulose) (HPC)
[8] = dose: 400.0 mg/kg/injection, schedule: Q04DX003 (ip), vehicle: Klucel (hydroxypropylcellulose) (HPC)
[9] = dose: 100.0 mg/kg/injection, schedule: Q01DX001 (ip), vehicle: carboxymethylcellulose (CMC)
[10] = dose: 200.0 mg/kg/injection, schedule: Q01DX001 (ip), vehicle: carboxymethylcellulose (CMC)
[11] = dose: 400.0 mg/kg/injection, schedule: Q01DX001 (ip), vehicle: carboxymethylcellulose (CMC)
[12] = dose: 100.0 mg/kg/injection, schedule: Q01DX009 (ip), vehicle: Klucel (hydroxypropylcellulose) (HPC)
[13] = dose: 200.0 mg/kg/injection, schedule: Q01DX009 (ip), vehicle: Klucel (hydroxypropylcellulose) (HPC)
[14] = dose: 400.0 mg/kg/injection, schedule: Q01DX009 (ip), vehicle: Klucel (hydroxypropylcellulose) (HPC)
[15] = dose: 100.0 mg/kg/injection, schedule: Q01DX009 (ip), vehicle: saline with Tween-80
[16] = dose: 200.0 mg/kg/injection, schedule: Q01DX009 (ip), vehicle: saline with Tween-80
[17] = dose: 400.0 mg/kg/injection, schedule: Q01DX009 (ip), vehicle: saline with Tween-80

Measured: T/C

Cc1ccc(Nc2nc(N)nc(CNc3ccc(Cl)cc3)n2)cc1
inactive: [1] 89 % of control | [2] 97 % of control | [3] 89 % of control

CC(=O)Nc1cccc(Cc2ccccc2)c1
inactive: [4] 95 % of control | [5] 100 % of control | [6] 97 % of control | [7] 103 % of control | dose: 400.0 mg/kg/injection, schedule: Q01DX001 (ip), vehicle: Klucel (hydroxypropylcellulose) (HPC) 97 % of control | [8] 108 % of control

CC1([N+](=O)[O-])COP(=O)(NCc2cccnc2)OC1 (centres undefined)
inactive: dose: 50.0 mg/kg/injection, schedule: Q01DX001 (ip), vehicle: carboxymethylcellulose (CMC) 103 % of control | [9] 95 % of control | [10] 113 % of control | [11] 95 % of control

O=C1c2cc(Cl)cc(Cl)c2-c2c1cc(Cl)cc2[N+](=O)[O-]
inactive: [12] 97 % of control | [5] 97 % of control | [13] 95 % of control | [7] 97 % of control | [14] 97 % of control | [8] 92 % of control

CC(=O)N1Cc2cc3ccccc3nc2C1
inactive: dose: 100.0 mg/kg/injection, schedule: Q04DX003 (ip), vehicle: saline 98 % of control | dose: 200.0 mg/kg/injection, schedule: Q04DX003 (ip), vehicle: saline 107 % of control | dose: 400.0 mg/kg/injection, schedule: Q04DX003 (ip), vehicle: saline 96 % of control

CCCC(C)(C)SSC(C)(C)CCC
inactive: [15] 98 % of control | [1] 103 % of control | [16] 96 % of control | [2] 110 % of control | [3] 117 % of control

O=c1[nH]cnc2c1ncn2C1SC(CO)C(O)C1O (centres undefined)
inactive: dose: 100.0 mg/kg/injection, schedule: Q01DX005 (ip), vehicle: saline 103 % of control | dose: 200.0 mg/kg/injection, schedule: Q01DX005 (ip), vehicle: saline 106 % of control

CC(C)c1cc[n+](/C(C(=S)Nc2cccc(Cl)c2)=C(/[O-])c2ccc([N+](=O)[O-])cc2)cc1
inactive: [12] 105 % of control | [13] 91 % of control | [14] 94 % of control

CCCCNC(=O)Nc1ccc(CC)cc1
inactive: [12] 98 % of control | [5] 97 % of control | [13] 102 % of control | [7] 102 % of control | [14] 96 % of control | [8] 100 % of control

S=c1cc(-c2ccco2)ss1
inactive: [15] 93 % of control | [1] 90 % of control | [16] 91 % of control | [2] 95 % of control | [17] 90 % of control | [3] 96 % of control

COC(=O)c1ccc(COc2ccc([N+](=O)[O-])cc2Cl)cc1
inactive: dose: 100.0 mg/kg/injection, schedule: Q01DX009 (ip), vehicle: saline sonified 94 % of control | [1] 96 % of control | dose: 200.0 mg/kg/injection, schedule: Q01DX009 (ip), vehicle: saline sonified 96 % of control | [2] 94 % of control | dose: 400.0 mg/kg/injection, schedule: Q01DX009 (ip), vehicle: saline sonified 94 % of control | [3] 96 % of control

O=Cc1ccc(C=O)cc1
inactive: [1] 94 % of control | [2] 105 % of control | [3] 106 % of control

O=c1c(N=Nc2ccc(Br)cc2)c(O)n(-c2ccc(I)cc2)c(=S)n1-c1ccccc1
inactive: dose: 50.0 mg/kg/injection, schedule: Q01DX001 (ip), vehicle: Klucel (hydroxypropylcellulose) (HPC) 97 % of control | [4] 108 % of control | [6] 121 % of control

CC(=O)c1ccc(OCC(O)CN2CCN(c3ccccc3)CC2)c(C)c1 (centres undefined)
inactive: [1] 108 % of control | [2] 108 % of control | [3] 101 % of control

Nc1nc2c(ncn2-c2ccc(OCCCOc3ccc(S(=O)(=O)F)cc3)cc2)c(=O)[nH]1
inactive: [4] 94 % of control | [6] 91 % of control

CCOC(=O)c1n[nH]c(=S)[nH]c1=S
inactive: dose: 100.0 mg/kg/injection, schedule: Q01DX001 (ip), vehicle: acetone 102 % of control | dose: 200.0 mg/kg/injection, schedule: Q01DX001 (ip), vehicle: acetone 101 % of control | dose: 400.0 mg/kg/injection, schedule: Q01DX001 (ip), vehicle: acetone 107 % of control

CN(C(=O)c1ccc([N+](=O)[O-])cc1)C(c1ccco1)P(=O)(c1ccccc1)c1ccccc1 (centres undefined)
inactive: [15] 90 % of control | dose: 100.0 mg/kg/injection, schedule: Q04DX002 (ip), vehicle: saline with Tween-80 96 % of control | [16] 87 % of control | dose: 200.0 mg/kg/injection, schedule: Q04DX002 (ip), vehicle: saline with Tween-80 86 % of control | [17] 90 % of control | dose: 400.0 mg/kg/injection, schedule: Q04DX002 (ip), vehicle: saline with Tween-80 93 % of control

Cn1c(=O)c2[n-]cnc2n(C)c1=O.Cn1c(=O)c2[n-]cnc2n(C)c1=O.[Pt+2]
inactive: dose: 25.0 mg/kg/injection, schedule: Q04DX003 (ip), vehicle: saline with Tween-80 102 % of control | dose: 50.0 mg/kg/injection, schedule: Q04DX003 (ip), vehicle: saline with Tween-80 98 % of control | [1] 98 % of control

O=C1NC(=O)C(=Cc2ccccc2[N+](=O)[O-])C(=O)N1
inactive: [9] 93 % of control | [10] 91 % of control | [11] 87 % of control

S=C(N/N=C1\CCCCC1c1ccccc1)Nc1ccccc1 (centres undefined)
inactive: [12] 95 % of control | [13] 90 % of control | [14] 104 % of control

COc1ccc(S(=O)(=O)Nc2cccc(C(F)(F)F)c2)cc1
inactive: [12] 102 % of control | [13] 102 % of control | [14] 100 % of control

O=S(=O)(Nc1ccccn1)c1ccc(N=Nc2ccc(O)c3ncccc23)cc1
inactive: dose: 100.0 mg/kg/injection, schedule: Q01DX001 (ip), vehicle: saline 103 % of control | dose: 200.0 mg/kg/injection, schedule: Q01DX001 (ip), vehicle: saline 105 % of control | dose: 400.0 mg/kg/injection, schedule: Q01DX001 (ip), vehicle: saline 103 % of control

OC(c1ccccc1)C(c1ccccc1)N1CCCC1 (centres undefined)
inactive: dose: 75.0 mg/kg/injection, schedule: Q01DX001 (ip), vehicle: saline 94 % of control | dose: 150.0 mg/kg/injection, schedule: Q01DX001 (ip), vehicle: saline 97 % of control | dose: 300.0 mg/kg/injection, schedule: Q01DX001 (ip), vehicle: saline 92 % of control

O=P(CCCCCCP(=O)(N1CC1)N1CC1)(N1CC1)N1CC1
inactive: dose: 25.0 mg/kg/injection, schedule: Q01DX009 (ip), vehicle: carboxymethylcellulose (CMC) 112 % of control and 115 % of control | dose: 50.0 mg/kg/injection, schedule: Q01DX009 (ip), vehicle: carboxymethylcellulose (CMC) 120 % of control and 121 % of control | [9] 116 % of control | [10] 103 % of control | dose: 200.0 mg/kg/injection, schedule: Q01DX009 (ip), vehicle: carboxymethylcellulose (CMC) 98 % of control and 101 % of control

O=C(CSCC(=O)c1ccc(Br)cc1)c1ccc(Br)cc1
inactive: dose: 100.0 mg/kg/injection, schedule: Q04DX003 (ip), vehicle: other 101 % of control | dose: 200.0 mg/kg/injection, schedule: Q04DX003 (ip), vehicle: other 93 % of control | dose: 400.0 mg/kg/injection, schedule: Q04DX003 (ip), vehicle: other 86 % of control

CC(=O)Nc1cc2[nH]c(=O)c3ccccc3c2cc1Cl
inactive: [9] 100 % of control | [10] 105 % of control | [11] 93 % of control
